The text below walks through data of ChEMBL document CHEMBL5505987 (Eur J Med Chem, 2024).

The structures appear in SMILES notation. Structures can show the parent of a compound that is named as a salt.

The subject of the assay is 4T1. The experiment in a line: Cytotoxicity against mouse 4T1 cells assessed as cell viability by MTT assay. It counts as functional, cell-based.

For `COc1cccc2c1C(=O)c1c(O)c3c(c(O)c1C2=O)C[C@@](O)(C(=O)CO)C[C@@H]3O[C@H]1C[C@H](N)[C@H](O)[C@H](C)O1` [DOXORUBICIN HYDROCHLORIDE], the IC50 was determined as 2.4 µM.

In general, IC50 refers to the point on the concentration scale where inhibition reaches its midpoint.
